Here are results for two molecules from US20240076394A1, “MODULATING THE IMMUNE RESPONSE USING ANTI-CD30 ANTIBODY-DRUG CONJUGATES” (Seagen Inc., priority 2020, published 2024).

Experiment [1] concerns CD30+ cell lines. The note with it: in vitro; cited from earlier work.
The test system of experiment [2] is xenograft models of Hodgkin disease. The note with it: SCID mouse xenograft models of Hodgkin disease; cited from earlier work.
Experiment [3] relates to CD4+CD127lowCD25+ peripheral blood Tregs (CD30+). In words: In vitro depletion of CD30+ peripheral blood T regulatory cells (flow cytometry live cell counts). The experiment is classed as cell-based, human. The note with it: peripheral blood Tregs from 2 normal donors, CD3/CD28 beads 1:4 and 10 ng/ml IL-2, 4-5 days, titration of ADC; compared to non-binding control ADC hIgG-7782; FIG. 1B. Here is the method: Cryopreserved inducible Tregs from 5 normal donors and CD4^+CD127^lowCD25^+ peripheral blood Tregs from 2 normal donors (Cellero and Stem Cell Technologies) were washed and resuspended in RPMI 1640 media containing 10% FBS and put into culture with CD3/CD28 beads at a 1:4 bead:cell ratio and 10 ng/ml IL-2 for 4-5 days in a 96-well round bottom plate at 37° C. and 5% CO2 in a titration of cAC10-7782 or non-specific control hIgG-7782. At the end of the incubation, cells were washed and stained with a Zombie Aqua viability dye and CD30 PE (Biolegend), and both total and CD30^+ live cell counts were determined using an Attune Nxt Flow cytometer. Untreated inducible Tregs were 37-80% CD30^+ and peripheral Tregs were 33-68% CD30^+ at the conclusion of the assay.
Cell counts are shown as the percent of untreated control.

Experiment [4] has as its system CD30+ inducible T regulatory cells (iTregs). Description: In vitro depletion of CD30+ inducible T regulatory cells (flow cytometry live cell counts). The experiment is classed as cell-based, human. The note with it: iTregs from normal donors, CD3/CD28 beads 1:4 and 10 ng/ml IL-2, 4-5 days, titration of ADC; compared to non-binding control ADC hIgG-7782; FIG. 1A. As for the experimental part:
The ability of the anti-CD30 antibody-drug conjugate SGN-CD30C to deplete CD30+T regulatory (Tregs) was assessed in vitro. Inducible T regulatory cells (iTregs) were differentiated from cryopreserved CD4^+ T cells of two normal donors (Cellero, Bothell, Washington, Cat #1023) in X-Vivo 15 media (Lonza, Cat #04-418Q) supplemented with 50 ng/ml TGFβ1 (R&D, cat #100-B), 50 ng/ml IL-2 (R&D, Cat #202-IL/CF) and a 1:100 dilution of Lipid Mixture 1 (Sigma, Cat #L0288-100 ml) with CD3/CD28 beads (Miltenyi, Cat #130-095-345) at a 1:20 bead:cell ratio for 6 days at 37° C. and 5% CO2, followed by 2 days resting in X-Vivo 15 media only. Differentiated iTregs were then immunophenotyped prior to in vitro cytotoxicity assays with a viability dye and fluorescently labeled anti-human CD3, CD4, CD8, CD25 and Foxp3 (Biolegend and BD Pharmingen), and analyzed on an Attune NxT Flow Cytometer (Life Technologies). Following differentiation, the iTreg populations were 38% and 53% CD25^+FoxP3^+. Inducible Tregs from 3 additional normal donors were also ordered directly from Cellero (Cat #1042). […]

“Also recorded” adds a separate entry of the source.

As for “cAC10: chimeric IgG1 monoclonal antibody that specifically binds CD30”, the “growth arrest of CD30+ cell lines” value in experiment [1] is reported as “induces growth arrest”. The antitumor activity result in experiment [2] is reported as “pronounced antitumor activity”.

B1: SGN-CD30C: antibody-drug conjugate of Formula (IC): L is anti-CD30 antibody brentuximab, y is 1, z is 8, p is 8 (conjugate)
VH: QIQLQQSGPEVVKPGASVKISCKASGYTFTDYYITWVKQKPGQGLEWIGWIYPGSGNTKYNEKFKGKATLTVDTSSSTAFMQLSSLTSEDTAVYFCANYGNYWFAYWGQGTQVTVSA
VL: DIVLTQSPASLAVSLGQRATISCKASQSVDFDGDSYMNWYQQKPGQPPKVLIYAASNLESGIPARFSGSGSGTDFTLNIHPVEEEDAATYYCQQSNEDPWTFGGGTKLEIK
As for B1, the “peripheral blood CD30+ Treg count (percent of untreated control)” value in experiment [3] was “depleted; also recorded: dose-dependent reduction”. Further, the “total CD30+ iTreg count (percent of untreated control)” value in experiment [4] is reported as “depleted; also recorded: dose-dependent reduction”.
